Source: patent US20260069584A1, “METHODS OF TREATING CHRONIC MYELOID LEUKEMIA USING THE TYROSINE KINASE INHIBITOR VODOBATINIB” (Sun Pharma Advanced Research Company Ltd., priority 2022, published 2026)

Test system: CP CML
Test: Part B: disease response in CP CML subjects
Assay type: in vivo, human
Excerpt: This was a Phase I/2, open-label, single-agent, multicenter, multi-dose, dose-escalation study in subjects with Philadelphia chromosome-positive Ph+ CML (CP CML, AP CML and BP CML) and Ph+ ALL. The primary objectives of this study were to determine the maximum tolerated dose (MTD; or recommended Phase 2 dose [RP2D]) of the compound of Formula I when administered orally and to evaluate its safety.
In this study, the dose-escalation cohort started with an accelerated titration study design (ATD) and shifted to a 3±3 design when subjects in the preceding ATD cohort experienced either grade 2 or higher adverse events (AEs) or dose-limiting toxicity (DLT) during Cycle 1 that was not clearly and incontrovertibly related to the underlying disease or concomitant medications. The DLT period consisted of 28 days (Cycle 1). Subjects experiencing DLTs were managed with dose delays and/or discontinuation and continued in the study until disease progression. Decisions to advance to a succeeding dose level occurred after the evaluation of safety and tolerability data for a given dose level.
Accordingly, the eligible subjects were treated in 4-week cycles of once daily self-administration of the compound of Formula I. The administration was after an overnight fast, or after maintaining approximately 2 hours of fasting before and after the dosing in all cycles.
For the cohorts, where the 3±3 design applies, 3 subjects were enrolled initially. If 2 of these subjects experienced a Grade 2 or more toxicity (that was not clearly and incontrovertibly related to the underlying disease or concomitant medications), subsequent cohorts were escalated according to smaller increments. Further, if there were no DLTs in the first 3 subjects, dose escalation to the next higher dose level was allowed to proceed. If 1 of the 3 subjects experienced a DLT, that dose level was expanded to 6 subjects (3 additional subjects were enrolled). If 2 subjects at a given dose level experienced a DLT, the MTD was considered to have been exceeded. The next lower dose level was expanded to 6 subjects, or if 6 subjects had already been enrolled and no more than 1 of the 6 subjects experienced a DLT, then this lower dose level was considered the MTD. Additional subjects were enrolled in dose escalation cohorts for further assessment of safety and efficacy of the compound of Formula 1 at doses that were tolerated (i.e., doses that have <2 DLTs in 6 enrolled subjects or <1 DLT in 3 enrolled subjects). Thus 204 mg was arrived at as MTD. A subject experiencing a DLT was allowed to continue therapy with a reduced dose. Subjects who experienced a DLT and recovered were treated at the next lower dose level until disease progression or other events requiring further dose reduction existed. For cohorts at Dose Level 2 or higher, a further dose reduction (i.e., up to 2 levels lower than their originally assigned dose) was implemented in the case of a further DLT or other non-DLT events requiring a dose reduction, if and when the event leading to dose reduction returned to Grade 1 or lower in severity. The reduced dose was re-escalated to the original or higher dose (i.e., the dose for which safety had been established in the dose escalation cohort) considering subject safety and response to the compound of Formula I. The subject was discontinued from treatment using the compound of Formula I, if dose reduction below 48 mg was required.
The study was conducted over a period of 60 months (5 years) which was divided in 28-days cycle. In the first two cycles, the dose administration was started on day 1 and the subject's assessments were performed on day 1, day 2, day 3, day 8, day 15 and day 22. From Cycle 3 onwards, the assessments were performed every 3 months (i.e., on day 28 of Cycle 3, followed by day 28 of Cycle 6 which was further followed by day 28 of Cycle 9). […]

Cc1ccc(C(=O)NNC(=O)c2c(C)cccc2Cl)cc1C#Cc1cnc2ccccc2c1 [compound of Formula I, N′-(2-chloro-6-methylbenzoyl)-4-methyl-3-[2-(3-quinolyl)ethynyl]-benzohydrazide]
Best Cytogenetic Response: Complete Response (12 mg (N = 1) ESC): 1(100)
Best Cytogenetic Response: Major Cytogenetic Response (12 mg (N = 1) ESC): 1(100)
Best Cytogenetic Response: Minimal Response (12 mg (N = 1) ESC): 0
Best Cytogenetic Response: Minor Response (12 mg (N = 1) ESC): 0
Best Cytogenetic Response: No Response (12 mg (N = 1) ESC): 0
Best Cytogenetic Response: Partial Response (12 mg (N = 1) ESC): 0
Best Hematologic Response: Complete Response (12 mg (N = 1) ESC): 1(100)
Best Hematologic Response: Major Hematologic Response (12 mg (N = 1) ESC): 1(100)
Best Hematologic Response: No Evidence of Leukemia (12 mg (N = 1) ESC): 0
Best Hematologic Response: No Response (12 mg (N = 1) ESC): 0
Best Molecular Response: Complete Response (12 mg (N = 1) ESC): 0
Best Molecular Response: Major Response (12 mg (N = 1) ESC): 0
Best Cytogenetic Response: Complete Response (48 mg (N = 3) ESC): 2(66.7)
Best Cytogenetic Response: Major Cytogenetic Response (48 mg (N = 3) ESC): 2(66.7)
Best Cytogenetic Response: Minimal Response (48 mg (N = 3) ESC): 0
Best Cytogenetic Response: Minor Response (48 mg (N = 3) ESC): 0
Best Cytogenetic Response: No Response (48 mg (N = 3) ESC): 0
Best Cytogenetic Response: Partial Response (48 mg (N = 3) ESC): 0
Best Hematologic Response: Complete Response (48 mg (N = 3) ESC): 2(66.7)
Best Hematologic Response: Major Hematologic Response (48 mg (N = 3) ESC): 2(66.7)
Best Hematologic Response: No Evidence of Leukemia (48 mg (N = 3) ESC): 0
Best Hematologic Response: No Response (48 mg (N = 3) ESC): 1(33.3)
Best Molecular Response: Complete Response (48 mg (N = 3) ESC): 2(66.7)
Best Molecular Response: Major Response (48 mg (N = 3) ESC): 2(66.7)
Best Molecular Response: No Response (48 mg (N = 3) ESC): 0
Best Cytogenetic Response: Complete Response (66 mg (N = 4) ESC): 2(50.0)
Best Cytogenetic Response: Major Cytogenetic Response (66 mg (N = 4) ESC): 2(50.0)
Best Cytogenetic Response: Minimal Response (66 mg (N = 4) ESC): 1(25.0)
Best Cytogenetic Response: Minor Response (66 mg (N = 4) ESC): 0
Best Cytogenetic Response: No Response (66 mg (N = 4) ESC): 1(25.0)
Best Cytogenetic Response: Partial Response (66 mg (N = 4) ESC): 0
Best Hematologic Response: Complete Response (66 mg (N = 4) ESC): 3(75.0)
Best Hematologic Response: Major Hematologic Response (66 mg (N = 4) ESC): 3(75.0)
Best Hematologic Response: No Evidence of Leukemia (66 mg (N = 4) ESC): 0
Best Hematologic Response: No Response (66 mg (N = 4) ESC): 1(25.0)
Best Molecular Response: Complete Response (66 mg (N = 4) ESC): 1(25.0)
Best Molecular Response: Major Response (66 mg (N = 4) ESC): 1(25.0)
Best Molecular Response: No Response (66 mg (N = 4) ESC): 3(75.0)
Best Cytogenetic Response: Complete Response (90 mg (N = 2) ESC): 0
Best Cytogenetic Response: Major Cytogenetic Response (90 mg (N = 2) ESC): 1(50.0)
Best Cytogenetic Response: Minimal Response (90 mg (N = 2) ESC): 0
Best Cytogenetic Response: Minor Response (90 mg (N = 2) ESC): 0
Best Cytogenetic Response: No Response (90 mg (N = 2) ESC): 1(50.0)
Best Cytogenetic Response: Partial Response (90 mg (N = 2) ESC): 1(50.0)
Best Hematologic Response: Complete Response (90 mg (N = 2) ESC): 2(100)
Best Hematologic Response: Major Hematologic Response (90 mg (N = 2) ESC): 2(100)
Best Hematologic Response: No Evidence of Leukemia (90 mg (N = 2) ESC): 0
Best Hematologic Response: No Response (90 mg (N = 2) ESC): 0
Best Molecular Response: Complete Response (90 mg (N = 2) ESC): 0
Best Molecular Response: Major Response (90 mg (N = 2) ESC): 1(50.0)
Best Molecular Response: No Response (90 mg (N = 2) ESC): 1(50.0)
Best Cytogenetic Response: Complete Response (126 mg (N = 4) ESC): 2(50.0)
Best Cytogenetic Response: Major Cytogenetic Response (126 mg (N = 4) ESC): 2(50.0)
Best Cytogenetic Response: Minimal Response (126 mg (N = 4) ESC): 1(25.0)
Best Cytogenetic Response: Minor Response (126 mg (N = 4) ESC): 0
Best Cytogenetic Response: No Response (126 mg (N = 4) ESC): 1(25.0)
Best Cytogenetic Response: Partial Response (126 mg (N = 4) ESC): 0
Best Hematologic Response: Complete Response (126 mg (N = 4) ESC): 4(100)
Best Hematologic Response: Major Hematologic Response (126 mg (N = 4) ESC): 4(100)
Best Hematologic Response: No Evidence of Leukemia (126 mg (N = 4) ESC): 0
Best Hematologic Response: No Response (126 mg (N = 4) ESC): 0
Best Molecular Response: Complete Response (126 mg (N = 4) ESC): 1(25.0)
Best Molecular Response: Major Response (126 mg (N = 4) ESC): 1(25.0)
Best Molecular Response: No Response (126 mg (N = 4) ESC): 3(75.0)
Best Cytogenetic Response: Complete Response (174 mg (N = 7) ESC): 3(42.9)
Best Cytogenetic Response: Major Cytogenetic Response (174 mg (N = 7) ESC): 3(42.9)
Best Cytogenetic Response: Minimal Response (174 mg (N = 7) ESC): 2(28.6)
Best Cytogenetic Response: Minor Response (174 mg (N = 7) ESC): 1(14.3)
Best Cytogenetic Response: No Response (174 mg (N = 7) ESC): 0
Best Cytogenetic Response: Partial Response (174 mg (N = 7) ESC): 0
Best Hematologic Response: Complete Response (174 mg (N = 7) ESC): 4(57.1)
Best Hematologic Response: Major Hematologic Response (174 mg (N = 7) ESC): 4(57.1)
Best Hematologic Response: No Evidence of Leukemia (174 mg (N = 7) ESC): 0
Best Hematologic Response: No Response (174 mg (N = 7) ESC): 2(28.6)
Best Molecular Response: Complete Response (174 mg (N = 7) ESC): 1(14.3)
Best Molecular Response: Major Response (174 mg (N = 7) ESC): 3(42.9)
Best Molecular Response: No Response (174 mg (N = 7) ESC): 3(42.9)
Best Cytogenetic Response: Complete Response (174 mg (N = 10) EXP): 6(60.0)
Best Cytogenetic Response: Major Cytogenetic Response (174 mg (N = 10) EXP): 7(70.0)
Best Cytogenetic Response: Minimal Response (174 mg (N = 10) EXP): 3(30.0)
Best Cytogenetic Response: Minor Response (174 mg (N = 10) EXP): 0
Best Cytogenetic Response: No Response (174 mg (N = 10) EXP): 0
Best Cytogenetic Response: Partial Response (174 mg (N = 10) EXP): 1 (10.0)
Best Hematologic Response: Complete Response (174 mg (N = 10) EXP): 10(100)
Best Hematologic Response: Major Hematologic Response (174 mg (N = 10) EXP): 10(100)
Best Hematologic Response: No Evidence of Leukemia (174 mg (N = 10) EXP): 0
Best Hematologic Response: No Response (174 mg (N = 10) EXP): 0
Best Molecular Response: Complete Response (174 mg (N = 10) EXP): 1(10.0)
Best Molecular Response: Major Response (174 mg (N = 10) EXP): 1(10.0)
Best Molecular Response: No Response (174 mg (N = 10) EXP): 9(90.0)
Best Cytogenetic Response: Complete Response (204 mg (N = 6) ESC): 4(66.7)
Best Cytogenetic Response: Major Cytogenetic Response (204 mg (N = 6) ESC): 6(100)
Best Cytogenetic Response: Minimal Response (204 mg (N = 6) ESC): 0
Best Cytogenetic Response: Minor Response (204 mg (N = 6) ESC): 0
Best Cytogenetic Response: No Response (204 mg (N = 6) ESC): 0
Best Cytogenetic Response: Partial Response (204 mg (N = 6) ESC): 2(33.3)
Best Hematologic Response: Complete Response (204 mg (N = 6) ESC): 6(100)
Best Hematologic Response: Major Hematologic Response (204 mg (N = 6) ESC): 6(100)
Best Hematologic Response: No Evidence of Leukemia (204 mg (N = 6) ESC): 0
